We go through 1 compound from patent publication US20110195924A1, “Methods of Inhibiting the Interaction Between S100P and the Receptor for Advanced Glycation End-Products” (priority 2008, published 2011).

The subject of one test is pancreatic cancer cells. The test is described as follows: Apoptosis of pancreatic cancer cells with cromolyn analogs and cytotoxic drugs. It counts as cell-based. The protocol:
(§1) Various cromolyn-based analogs were developed. The effects of the analogs on binding of S100P with RAGE were evaluated for the analogs using a sandwich ELISA. The effectiveness of the analogs to block cancer cell proliferatin and increase apoptosis in vitro were analyzed with and without cisplatin, 5-flurouracil and gemcitabine by MTS and FACS analysis. We also examined the ability of the analogs to inhibit S100P activation of NFkB signaling in cancer cells in vitro and in vivo. Finally, the effects of the novel analogs on tumor growth in vivo was evaluated. One analog, C5OH is shown below:
In this in vitro study, pancreatic cancer cells were treated with gemcitabine alone or in the presence of cromolyn analogs. The cromolyn analogs themselves have very little effect on the rates of cellular apoptosis, supporting their absence of general toxicity. However, all cromolyn analogs increased the killing of pancreatic cancer cells by gemcitabine.

A further test concerns MPanc96 tumors. The test is described as follows: MPanc96 pancreatic tumor growth and survival in mice (analogs). The test is classed as in vivo. Particulars: mouse, in vivo. The protocol: as §1
Animals were implanted with MPanc96 cells, a gemcitabine resistant model of pancreatic cancer, and then treated with gemcitabine, C5OH, or the combination. […] Noteworthy, the addition of the hydroxyl group to the carbon chain in C5 allows easy modifications of this molecule. The hydroxyl can be substituted with fluoride that can be labeled for in vivo PET imaging. This hydroxyl can also be used to develop a pro-drug form of C5 by attaching other components with an ester bond.

For another test, the system named is BxPC-3 cells. The test is described as follows: BxPC-3 cell viability, alone or with gemcitabine. It counts as cell-based. Particulars: 72 hours. The protocol: BxPC-3 cells were plated at 1.0×10^3 cells/well and treated with 0 μM, 1 μM, 10 μM, and 100 μM of cromolyn or C5 alone or in combination with gemcitabine 1 μM and cell viability was analyzed after 72 hours. Two-tailed two-sample (unpaired) Student's t-tests were used to determine P values. […] BxPC-3 cells were plated at 1.0×10^3 cells/well and treated with either 100 μM of cromolyn or 1 μM C5 alone or in combination with gemcitabine (1 μM) and cell viability was analyzed after 72 hours.

In another test the test system is NFκB activity. Description: S100P stimulated NFκB luciferase reporter in MPanc-96 cells. The test is classed as cell-based, Human. Particulars: S100P 100 nM, 5 hours. The method, then: MPanc-96 pancreatic cancer cell lines stably expressing an NFκB luciferase reporter were examined for the effects of S100P, cromolyn and C5. Cells were plated at 5.0×10^3 cells/well, treated for 5 hours with 100 nM of S100P, with or without cromolyn and C5 (1 μM), and activity of a luciferase gene driven by the NFkB promoter was analyzed. P=0.05 C5 versus cromolyn. Two-tailed two-sample (unpaired) Student's t-tests were used to determine P values.
In general terms: A reporter such as luciferase makes a cellular process visible.

In the next test the test system is MPanc-96 cells. Description: MPanc-96 cell apoptosis by flow cytometry, alone or with gemcitabine. It counts as cell-based, Human. Particulars: 100 and 1000 nM, 72 hours. The protocol: FIG. 11 compares the effects of cromolyn and C5 alone and in combination with gemcitabine on MPanc-96 cell apoptosis. MPanc-96 cells were treated with cromolyn or C5 (100 and 1000 nM) with (+) or without (−) gemcitabine (10 μM). Apoptosis was analyzed after 72 hours by flow cytometry.
In general terms: In flow cytometry, cells or beads pass a laser one at a time.

Another test addresses T1, S100B with RAGE (Homo sapiens, UniProt P04271).
T1 sequence (P04271 1-92): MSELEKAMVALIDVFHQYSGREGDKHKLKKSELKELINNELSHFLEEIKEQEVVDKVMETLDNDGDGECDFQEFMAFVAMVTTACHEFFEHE
Description: ELISA of S100B binding to RAGE (sRAGE coated plate). From the text:
After removing un-bound S100B by washing with detergent, bound S100B and RAGE complex was quantified by adding HRP labeled antibody against S100B.
(In general: ELISA stands for enzyme-linked immunosorbent assay.)

The subject of another test is NFkB activity. Description: S100P induced NFkB activity in cancer cells (analogs). It counts as cell-based. The method, then: Various cromolyn-based analogs were developed. The effects of the analogs on binding of S100P with RAGE were evaluated for the analogs using a sandwich ELISA. The effectiveness of the analogs to block cancer cell proliferatin and increase apoptosis in vitro were analyzed with and without cisplatin, 5-flurouracil and gemcitabine by MTS and FACS analysis. We also examined the ability of the analogs to inhibit S100P activation of NFkB signaling in cancer cells in vitro and in vivo. Finally, the effects of the novel analogs on tumor growth in vivo was evaluated.

For the next test, the target named is T2, S100P binding with RAGE (Homo sapiens, UniProt P25815).
T2 construct: full-length human S100P cDNA (NM_005980) was cloned into the pTrcHis2 vector; His; made in house; host or cells: bacteria (S100P)
T2 sequence (P25815 1-95): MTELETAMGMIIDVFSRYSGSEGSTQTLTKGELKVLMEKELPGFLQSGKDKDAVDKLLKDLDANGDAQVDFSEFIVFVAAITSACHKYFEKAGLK
Description: ELISA of S100P binding to RAGE (sRAGE coated plate). The method, then: After removing un-bound S100P by washing with detergent, the bound S100P and RAGE complex was quantified by adding HRP labeled antibody against S100P. *, P=0.04 C5 1 μM versus cromolyn 5 μM. Two-tailed two-sample (unpaired) Student's t-tests were used to determine P values.
The plate was washed and the amount of bound S100P was quantitated using anti-S100P antibody.
The binding of S100P to RAGE was determined using an ELISA assay. sRAGE was attached to the dish and recombinant S100P (50 ng) was added with or without the indicated concentrations of cromolyn analogs. The plate was washed and the amount of bound S100P was quantitated using anti-S100P antibody.

Entries after “also recorded” stand apart in the source; their conditions may differ.

As for `O=C([O-])c1cc(=O)c2c(OCCCCCOc3cccc4oc(C(=O)[O-])cc(=O)c34)cccc2o1.[Na+].[Na+]` [C5, disodium 1,5-bis(2-carboxychromon-5-yloxy)pentane], the “cancer cell apoptosis in response to various cytoxic treatments, relative to cromolyn” value in the test with pancreatic cancer cells is “at lesser concentrations and to a greater extent than did cromolyn”. In addition, the “killing of pancreatic cancer cells by gemcitabine” value with pancreatic cancer cells (with gemcitabine, C5 and C5OH at 10-fold lower concentration than cromolyn) is given as “worked equally well”. Further, in the test with MPanc96 tumors, the “inhibition of tumor growth and survival in vivo, relative to cromolyn” value is on record as “superior to cromolyn”. Also, the “inhibiting cell viability in combination with gemcitabine, relative to cromolyn” value with BxPC-3 cells (BxPC-3, 1-100 μM with gemcitabine 1 μM) is “more potent and efficacious”. For the same compound, the “blocking cell growth alone, relative to cromolyn” value in the test on BxPC-3 cells (BxPC-3, 10 or 100 μM) was “more potent and more efficacious than cromolyn”. For the same compound, the “concentration giving the same level of cell reduction in combination with gemcitabine” value in the test on BxPC-3 cells (BxPC-3, gemcitabine 1 μM, FIG. 10) is 1 µM. For the same compound, the BxPC-3 cell viability entry in the test with BxPC-3 cells (alone and in conjunction with gemcitabine 1 μM) is recorded as “inhibit”. For the same compound, the “reduction of S100P induced NFκB activity relative to cromolyn at the same dose” value in the test on NFκB activity (1 μM) was “much better than cromolyn”. Further, in the test with NFκB activity (compound 1 μM), the “NFκB activity in pancreatic cancer cells in vitro” value is on record as “inhibit”. Also, the “apoptosis in combination with gemcitabine, relative to cromolyn with gemcitabine” value in the test with MPanc-96 cells (MPanc-96, gemcitabine 10 μM) is “induced more apoptosis than cromolyn”. In the test on MPanc-96 cells (alone and in conjunction with gemcitabine 10 μM), the MPanc-96 cell viability result is on record as “inhibit”. Moreover, the “interaction of S100B with RAGE” value at S100B with RAGE is recorded as “inhibit”. In addition, the “inhibition of S100P induced NFkB activity relative to cromolyn” value in the test with NFkB activity is “more potently and effectively than did cromolyn”. The “blocking of the interaction / binding of S100P with RAGE” value on S100P binding with RAGE is “blocked”. Also, the “concentration achieving the same level of S100P inhibition” value on S100P binding with RAGE (FIG. 7) is listed as 100 nM. The “potency in blocking S100P binding to RAGE relative to cromolyn or C5” value at S100P binding with RAGE (analogs at 10-fold lower concentration than cromolyn) was “nearly equally potent and more efficient than cromolyn; also recorded: better than cromolyn”.
